How the values were obtained:
[1] = tested on: cultured human mast cells (CHMC); experiment: CHMC low cell density IgE activation: tryptase assay; format: cell-based; conditions: anti-IgE
In short: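 CHMC resuspended in pre-warmed MT buffer at 1000-1500 cells/well (donor-dependent) and preincubated 1 hr at 37° C, then stimulated with anti-IgE for 30 min at 37° C; unstimulated wells got MT alone. Supernatant tryptase activity read with tryptase substrate after 30 min at room temperature.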

[2] = tested on: cultured human mast cells (CHMC); experiment: CHMC low cell density ionomycin activation: tryptase assay; format: cell-based

SMILES: CNC(=O)COc1cccc(Nc2nc(Nc3ccc4c(c3)OCCO4)ncc2F)c1 [R926776, N2-(3,4-Ethylenedioxyphenyl)-5-fluoro-N4-[3-(N-methylamino)carbonylmethyeleneoxyphenyl]-2,4-pyrimidinediamine]
- IC50 [1]: 810 nM
- IC50 [2]: > 10000 nM

SMILES: CNC(=O)COc1cccc(Nc2ncc(F)c(Nc3cccc(B(O)O)c3)n2)c1 [R926754, 5-Fluoro-N4-(3-dihydroxyborylphenyl)-N2-[3-[(N-methylamino)carbonylmethyleneoxy]phenyl]-2,4-pyrimidinediamine]
- IC50 [1]: 388 nM
- IC50 [2]: > 10000 nM

SMILES: OCCn1ncc2cc(Nc3ncc(F)c(Nc4cccc(O)c4)n3)ccc21 [R935256, 5-Fluoro-N2-[1-(2-hydroxyethyl)indazoline-5-yl]-N4-(3-hydroxyphenyl)-2,4-pyrimidinediamine]
- IC50 [1]: 324 nM
- IC50 [2]: > 10000 nM

SMILES: COC(=O)c1ccc(Cn2cc3ccc(Nc4ncc(F)c(Nc5ccc(OC(C)C)cc5)n4)cc3n2)c(OC)c1 [R935338, 5-Fluoro-N4-(4-isopropoxyphenyl)-N2-[2-(2-methoxy-4-carbomethoxybenzyl)indazoline-6-yl]-2,4-pyrimidinediamine]
- IC50 [1]: 411 nM
- IC50 [2]: > 10000 nM

SMILES: CNc1ncc(F)c(Nc2ccc3c(c2)OCCO3)n1 [R950189]
- IC50 ([1]; Homo sapiens, Mast cell): 10000 nM
- IC50 ([2]; Homo sapiens, Mast cell): > 10000 nM

SMILES: O=C(CNc1cccc(Nc2ncc(F)c(Nc3cccc(NCCO)c3)n2)c1)N1CCNCC1 [R950241, N4-[3-(2-Hydroxyethyleamino)phenyl]-N2-[3-(N-piperazino)-carbonylmethyleneaminophenyl]-5-fluoro-2,4-pyrimidinediamine]
- IC50 [1]: 3280 nM
- IC50 [2]: > 10000 nM

SMILES: CNC(=O)COc1cccc(Nc2ncc(F)c(Nc3ccc(OC(F)(F)F)c(C(=O)OC)c3)n2)c1 [R950392, N4-(3-Methoxycarbonyl-4-trifluoromethoxyphenyl)-5-fluoro-N2-[3-(N-methylamino)carbonylmethyleneoxyphenyl]-2,4-pyrimidinediamine]
- IC50 [1]: 956 nM
- IC50 [2]: > 10000 nM

SMILES: CCOC(=O)COc1cccc(Nc2ncc(F)c(Nc3ccc4c(c3)OCCO4)n2)c1 [R926482, N2-(3-Ethoxycarbonylmethyleneoxyphenyl)-N4-(3,4-ethylenedioxyphenyl)-5-fluoro-2,4-pyrimidinediamine]
- IC50 [1]: 1040 nM
- IC50 [2]: > 10000 nM

SMILES: NC(=O)COc1cccc(Nc2ncc(F)c(Nc3ccc4c(c3)OCCO4)n2)c1 [R926747, N2-(3-Aminocarbonylmethyleneoxyphenyl)-N4-(3,4-ethylenedioxyphenyl)-5-fluoro-2,4-pyrimidinediamine]
- IC50 [1]: 213 nM
- IC50 [2]: > 10000 nM

SMILES: CCOC(=O)C(C)(C)c1ccc(Nc2nc(Nc3ccc(OC(C)C)cc3)ncc2F)cc1 [R935167, N4-[4-[(1-Ethoxycarbonyl-1-methyl)ethyl]phenyl]-5-fluoro-N2-(4-isopropoxyphenyl)-2,4-pyrimidinediamine]
- IC50 [1]: 2130 nM
- IC50 [2]: > 10000 nM

SMILES: O=C(CNc1cccc(Nc2ncc(F)c(Nc3cccc(NCCO)c3)n2)c1)NCCO [R950231, 5-Fluoro-N4-[3-(2-hydroxyethylamino)phenyl]-N2-[3-[N-(2-hydroxyethylamino)]carbonylmethyleneaminophenyl]-2,4-pyrimidinediamine]
- IC50 [1]: 1970 nM
- IC50 [2]: > 10000 nM

SMILES: Cc1nc(COc2cccc(Nc3nc(Nc4ccc5c(c4)OCCO5)ncc3F)c2)no1 [R945137, N2-(3,4-Ethylenedioxyphenyl)-5-fluoro-N4-[3-(5-methyl-1,2,4-oxadiazol-3-yl)methyleneoxyphenyl]-2,4-pyrimidinediamine]
- IC50 [1]: 1650 nM
- IC50 [2]: > 10000 nM

SMILES: COC(=O)Cn1ncc2cc(Nc3ncc(F)c(Nc4ccc5c(cnn5CC(=O)OC)c4)n3)ccc21 [R935211, N2,N4-Bis[1-(methoxycarbonyl)methyl-indazoline-5-yl]-5-fluoro-2,4-pyrimidinediamine]
- IC50 [1]: 1240 nM
- IC50 [2]: > 10000 nM

SMILES: Cc1nc(COc2cccc(Nc3ncc(F)c(Nc4cccc(O)c4)n3)c2)no1 [R945127, 5-Fluoro-N4-(3-hydroxyphenyl)-N2-[3-(5-methyl-1,2,4-oxadiazol-3-yl)methyleneoxyphenyl]-2,4-pyrimidinediamine]
- IC50 [1]: 704 nM
- IC50 [2]: 8960 nM
